Measured values from patent US20070128217A1 (priority 2003, published 2007).

Legend:
[1] = tested on: antibodies in sera from SARS patients (sera 1a, 1b, 2, 6, 37, 62, London, SARS-yellow, SARS-green); type: binding, human; set-up: Binding of serum 6 to linear peptides of protein X1 of SARS-CoV Urbani / Binding of serum 37 to linear peptides of protein X1 of SARS-CoV Urbani / Binding of serum 6 to looped/cyclic peptide (PEPSCAN-ELISA) / Binding of serum 37 to looped/cyclic peptide (PEPSCAN-ELISA) / Binding of serum 37 to looped/cyclic peptides of protein X1 of SARS-CoV Urbani / Binding of serum 6 to linear peptides of protein X2 / Binding of serum 37 to linear peptides of protein X2 / Binding of serum 37 to looped/cyclic peptides of protein X2 of SARS-CoV Urbani / Binding of serum 6 to linear peptides of protein M of SARS-CoV Urbani / Binding of serum 37 to linear peptides of protein M of SARS-CoV Urbani / Binding of serum 6 to looped/cyclic peptides of protein M of SARS-CoV Urbani / Binding of serum 37 to looped/cyclic peptides of protein M of SARS-CoV Urbani / Binding of serum 6 to linear peptides of protein X3 of SARS-CoV Urbani / Binding of serum 37 to linear peptides of protein X3 of SARS-CoV Urbani / Binding of serum 37 to looped/cyclic peptides of protein X3 of SARS-CoV Urbani / Binding of serum 6 to linear peptides of protein X4 of SARS-CoV Urbani / Binding of serum 37 to linear peptides of protein X4 of SARS-CoV Urbani / Binding of serum 37 to looped/cyclic peptides of protein X4 of SARS-CoV Urbani / Binding of serum 6 to linear peptides of protein X5 of SARS-CoV Urbani / Binding of serum 37 to linear peptides of protein X5 of SARS-CoV Urbani / Binding of serum 37 to looped/cyclic peptides of protein X5 of SARS-CoV Urbani / Binding of serum 6 to linear peptides of protein N of SARS-CoV Urbani / Binding of serum 37 to linear peptides of protein N of SARS-CoV Urbani / Binding of serum 6 to linear peptide (PEPSCAN-ELISA) / Binding of serum 1a to looped/cyclic peptides of protein N of SARS-CoV Urbani / Binding of serum 1b to looped/cyclic peptides of protein N of SARS-CoV Urbani / Binding of serum 2 to looped/cyclic peptides of protein N of SARS-CoV Urbani / Binding of serum 6 to looped/cyclic peptides of protein N of SARS-CoV Urbani / Binding of serum 37 to looped/cyclic peptides of protein N of SARS-CoV Urbani / Binding of serum 62 to looped/cyclic peptides of protein N of SARS-CoV Urbani / Binding of serum London to looped/cyclic peptides of protein N of SARS-CoV Urbani / Binding of serum SARS-green to looped/cyclic peptides of protein N of SARS-CoV Urbani: unit not given here
[2] = tested on: control sera (pooled serum of ten healthy LUMC hospital workers; commercial negative donor pooled serum from the Dutch bloodbank); type: binding, human; set-up: Binding of Control serum LUMC to linear peptides / Binding of Control serum Blood-bank to linear peptides / Binding of Control serum LUMC to looped peptides / Binding of Control Serum Blood-Bank to Looped peptides / Binding of Control serum LUMC to linear peptides of the protein M of SARS-CoV Urbani / Binding of Control serum Blood-bank to linear peptides of the protein M of SARS-CoV Urbani / Binding of Control serum LUMC to looped peptides of the protein M of SARS-CoV Urbani / Binding of Control Serum Blood-Bank to Looped peptides of the protein M of SARS-CoV Urbani: unit not given here
[3] = tested on: rabbit serum obtained by immunizing a rabbit with the SARS-CoV strain Frankfurt 1; type: binding; set-up: Binding of a rabbit serum to linear peptides / Binding of a rabbit serum to looped peptides / Rabbit serum linear peptides / Rabbit serum looped peptides / Binding of a rabbit serum to linear peptides of protein N of SARS-CoV Urbani (Rabbit serum linear peptides) / Binding of a rabbit serum to looped/cyclic peptides of protein N of SARS-CoV Urbani (Rabbit serum looped peptides): unit not given here
[4] = tested on: recombinant human anti-SARS-CoV antibody 03-018; type: binding; set-up: Binding of antibody 03-018 to linear peptides of the N protein of SARS-CoV Urbani / Binding of antibody 03-018 to looped/cyclic peptides of the N protein of SARS-CoV Urbani: unit not given here

Sequence	Binding of serum 1a to linear peptides of protein N of SARS-CoV Urbani [1]	Binding of serum 1a to looped/cyclic peptides of protein N of SARS-CoV Urbani [1]	Binding of serum 1b to linear peptides of protein N of SARS-CoV Urbani [1]	Binding of serum 1b to looped/cyclic peptides of protein N of SARS-CoV Urbani [1]	Binding of serum 2 to linear peptides of protein N of SARS-CoV Urbani [1]	Binding of serum 2 to looped/cyclic peptides of protein N of SARS-CoV Urbani [1]	Binding of serum 6 to looped/cyclic peptides of protein N of SARS-CoV Urbani [1]	Binding of serum 37 to looped/cyclic peptides of protein N of SARS-CoV Urbani [1]	Binding of serum 62 to looped/cyclic peptides of protein N of SARS-CoV Urbani [1]	Binding of serum London to looped/cyclic peptides of protein N of SARS-CoV Urbani [1]	Binding of serum SARS-green to looped/cyclic peptides of protein N of SARS-CoV Urbani [1]	Binding of serum SARS-yellow to looped/cyclic peptides of protein N of SARS-CoV Urbani [1]	Binding of Control Serum Blood-Bank to Looped peptides [2]	Binding of Control serum Blood-bank to linear peptides [2]	Binding of Control serum LUMC to linear peptides [2]	Binding of Control serum LUMC to looped peptides [2]	Binding of a rabbit serum to linear peptides of protein N of SARS-CoV Urbani (Rabbit serum linear peptides) [3]	Binding of a rabbit serum to looped/cyclic peptides of protein N of SARS-CoV Urbani (Rabbit serum looped peptides) [3]	Binding of antibody 03-018 to linear peptides of the N protein of SARS-CoV Urbani [4]	Binding of antibody 03-018 to looped/cyclic peptides of the N protein of SARS-CoV Urbani [4]	also measured
LPNNTASWFTALTQH	0.2	0.4	0.1	0.3	0.2	0.4	0.3	0.8	0.7	0.3	0.7	0.7	0.8	0.7	0.7	0.7	0.1	0.6	0.1	0.3	Binding of serum 6 to linear peptides of protein N of SARS-CoV Urbani [1]: 0.1; Binding of serum 37 to linear peptides of protein N of SARS-CoV Urbani [1]: 0.7; Binding of serum 62 to linear peptides of protein N of SARS-CoV Urbani [1]: 0.7; Binding of serum London to linear peptides of protein N of SARS-CoV Urbani [1]: 0.4; Binding of serum SARS-green to linear peptides of protein N of SARS-CoV Urbani [1]: 0.3; Binding of serum SARS-yellow to linear peptides of protein N of SARS-CoV Urbani [1]: 0.5
TQAFGRRGPEQTQGN	–	0.3	–	0.2	–	0.4	0.3	0.5	0.5	0.4	0.3	0.2	0.7	0.8	0.7	0.6	–	–	0.1	0.2	Binding of serum 1a to linear peptide (PEPSCAN-ELISA) [1]: 0.2; Binding of serum 1b to linear peptide (PEPSCAN-ELISA) [1]: 0.1; Binding of serum 2 to linear peptide (PEPSCAN-ELISA) [1]: 0.2; Binding of serum 6 to linear peptide (PEPSCAN-ELISA) [1]: 0.2; Binding of serum 37 to linear peptide (PEPSCAN-ELISA) [1]: 0.6; Binding of serum 62 to linear peptide (PEPSCAN-ELISA) [1]: 0.5; Binding of serum London to linear peptide (PEPSCAN-ELISA) [1]: 0.5; Binding of serum SARS-green to linear peptide (PEPSCAN-ELISA) [1]: 0.3; Binding of serum SARS-yellow to linear peptide (PEPSCAN-ELISA) [1]: 0.5; Recognition of the peptide by the rabbit serum [3]: recognized
GQTVTKKSAAEASKK	–	0.2	–	0.1	–	0.2	0.1	0.4	0.2	0.3	0.0	0.2	0.4	0.7	0.7	0.3	0.2	0.2	0.1	0.2	Recognition of the peptide by sera of SARS-CoV infected individuals, and form (linear, looped/cyclic) in which it is recognized [1]: recognized in linear form
RSAPRITFGGPTDST	0.2	0.3	0.1	0.2	0.1	0.3	0.2	0.5	0.4	0.3	0.4	0.5	0.6	0.6	0.5	0.6	0.3	0.7	–	–	Binding of serum 6 to linear peptides of protein N of SARS-CoV Urbani [1]: 0.1; Binding of serum 37 to linear peptides of protein N of SARS-CoV Urbani [1]: 0.6; Binding of serum 62 to linear peptides of protein N of SARS-CoV Urbani [1]: 0.6; Binding of serum London to linear peptides of protein N of SARS-CoV Urbani [1]: 0.5; Binding of serum SARS-green to linear peptides of protein N of SARS-CoV Urbani [1]: 0.4; Binding of serum SARS-yellow to linear peptides of protein N of SARS-CoV Urbani [1]: 0.5; Recognition of the peptide by antibody 03-018 [4]: recognized
GGGETALALLLLDRL	–	0.4	–	0.3	–	0.5	0.2	0.8	0.7	0.4	0.3	0.7	0.7	0.5	0.6	0.8	0.1	0.7	0.1	0.2	Binding of serum 1a to linear peptide (PEPSCAN-ELISA) [1]: 0.2; Binding of serum 1b to linear peptide (PEPSCAN-ELISA) [1]: 0.1; Binding of serum 2 to linear peptide (PEPSCAN-ELISA) [1]: 0.1; Binding of serum 6 to linear peptide (PEPSCAN-ELISA) [1]: 0.1; Binding of serum 37 to linear peptide (PEPSCAN-ELISA) [1]: 0.7; Binding of serum 62 to linear peptide (PEPSCAN-ELISA) [1]: 0.5; Binding of serum London to linear peptide (PEPSCAN-ELISA) [1]: 0.4; Binding of serum SARS-green to linear peptide (PEPSCAN-ELISA) [1]: 0.2; Binding of serum SARS-yellow to linear peptide (PEPSCAN-ELISA) [1]: 0.6
